Measured values from patent US20200165194A1, “ADDITIVE COMPOSITION FOR CULTURE MEDIUM, ADDITIVE COMPOUND FOR CULTURE MEDIUM, AND METHOD FOR CULTURE OF CELLS OR TISSUE USING SAME” (NISSAN CHEMICAL CORPORATION, priority 2017, published 2020).
Like-named read-outs stand apart in the source and are kept apart here.

Assays:
Type in all cases: cell-based
[1] = test system: human ovarian cancer cell line SKOV3; assay: Action on SKOV3 cell-1: 3D (deacylated gellan gum) and 2D culture, HB-EGF medium, ATP assay (Experimental Example 2); details: for viability at 0.5 µM / viability at 1 µM / viability at 5 µM / viability at 10 µM / viability at 20 µM: Homo sapiens, SK-OV-3, 96 h, read-out: relative value of RLU (number of viable cells); for viability at 0.5 µM / viability at 1 µM / viability at 5 µM / viability at 10 µM / viability at 20 µM / relative value of RLU (number of viable cells): 4 days, compound non-addition = 100%
Procedure: According to the method of patent document 1 (WO 2014/017513), a composition of McCoy's 5a medium (manufactured by Sigma-Aldrich) containing 0.015% (w/v) deacylated gellan gum (KELCOGEL CG-LA, manufactured by Sansho Co., Ltd.) and 15% (v/v) FBS, 100 ng/mL human HB-EGF (manufactured by PEPROTECH) was prepared by a homomixer. As a control, a non-addition medium composition not containing deacylated gellan gum was prepared. Then, human ovarian cancer cell line SKOV3 (manufactured by DS PHARMA BIO MEDICAL) was suspended in the above-mentioned medium composition added with deacylated gellan gum, and dispensed into the wells of a 384 well flat bottom Ultr-low Attachment surface microplate (manufactured by Corning Incorporated, #3827) at 1000 cells/40 μL/well (three-dimensional culture (3D)). In a single layer culture (2D), human ovarian cancer cell line SKOV3 was suspended in the above-mentioned medium is composition not containing deacylated gellan gum, and dispensed into the wells of a 384 well flat bottom microplate (manufactured by Corning Incorporated, #3712) at 400 cells/40 L per well. Each plate was cultured in a standing state in a CO2 incubator (37° C., 5% CO2). On day 1 of culture, the compound to be used in the present invention dissolved in dimethyl sulfoxide (DMSO) was added by 4.4 μL each at a final concentration of 0, 0.5, 1, 5, 10, 20 μM, and continuously cultured for 4 days. An ATP reagent (44.4 μL) (CellTiter-Glo (registered trade mark) Luminescent Cell Viability Assay, manufactured by Promega) was added to and suspended in the culture medium on day 5, and the suspension was stood for 15 min at room temperature. The luminescence intensity (RLU value) was measured by FlexStation3 (manufactured by Molecular Devices) and the luminescence value of the medium alone was subtracted to measure the number of viable cells.

[2] = test system: a plurality of cancer cell lines; assay: Various human cancer cells-1, summary over the cell lines (Experimental Example 5); details: cancer cell lines under three-dimensional conditions
Source text: Various human-derived cancer cells were precultured (single layer culture) in respective media shown below. […]

CD34, CD73, CD29 of hMSC = assay: Human mesenchymal stem cells-1: cell surface markers by FACS after 3D culture (Experimental Example 9); details: for CD34+ (negative rate) / CD29+ (positive rate) / CD73+ (positive rate): hMSC after 3D culture, 10 μM, 7 days; for CD34+ (negative rate): no addition 0.9%; for CD29+ (positive rate): no addition 94.6%; for CD73+ (positive rate): no addition 99.9%; for undifferentiated state of hMSCs (in words): surface markers CD34, CD73, CD29 did not change
Procedure: Human mesenchymal stem cells (hMSC, manufactured by TOYOBO) were precultured by a single layer culture method (2D) using an MF-medium mesenchymal stem cell proliferation medium (manufactured by TOYOBO). In three-dimensional culture method (3D), hMSC were suspended in a medium composition added with deacylated gellan gum, and seeded in a […] flat bottom Ultr-low Attachment surface plate (manufactured by Corning Incorporated, #3471) at 1.2×10^5 cells/2 mL/well. In 2D, hMSC were suspended in a deacylated gellan gum-free medium composition, and seeded in a 6-well flat bottom plate (manufactured by Corning Incorporated, #3516) at 4.0×10^4 cells/2 mL/well. […] As a control, DMSO was added at a final concentration of 0.1%. Seven days later, in the three-dimensional culture method, cells were collected from the wells, washed with PBS, and the supernatant was removed. Then, a trypsin 0.25 w/v % trypsin-1 mmol/L EDTA (ethylenediaminetetraacetic acid) solution (manufactured by Wako Pure Chemical Industries, Ltd.) was added and the cells were incubated at 37° C. for 2-5 min to disperse the spheres into single cells. The medium was added, and the mixture was centrifuged to remove the supernatant. Thereafter, the cells were resuspended in the same medium, a part was suspended in Trypan Blue (manufactured by Wako Pure Chemical Industries, Ltd.), and the number of viable cells was counted using automatic cell counter TC20 (manufactured by BIO-RAD).
CD34 antibody (APC, manufactured by BD Bioscience), CD73 (BV421, manufactured by BD Bioscience), CD29 (BB515, manufactured by BD Bioscience) were added to the above-mentioned cell suspension, and the mixture was incubated on ice for 30 min. The cells were washed twice with 2% SM buffer (2% FBS/PBS), SM containing 1 μg/mL of Propidium Iodide (PI) was added, and the mixture was analyzed with FACSAria (manufactured by Becton Dickinson). The cell number with compound non-addition (control) was taken as 1, and relative value with addition of each compound is calculated in the fifteenth table. The positive rates or negative rates of CD34, CD73, and CD29 of cells after three-dimensional culture (3D) under the conditions with no addition or addition of the compound are shown in the sixteenth table.

[3] = 2D single layer culture, 0.5 μM
[4] = 3D culture (deacylated gellan gum), 0.5 μM
[5] = 3D culture (deacylated gellan gum), 1 μM
[6] = 3D culture (deacylated gellan gum), 5 μM
[7] = 3D culture (deacylated gellan gum), 10 μM
[8] = 3D culture (deacylated gellan gum), 20 μM
[9] = single layer culture (2D) of SKOV3 cells
[10] = three-dimensional culture (3D) of SKOV3 cells

CC/C(=N\NC(=O)Nc1ccccc1)c1ccc(O)c(C)c1O [k-1:H-10]
viability at 0.5 µM [1, 3]: 111%
viability at 1 µM ([1]; 2D single layer culture, 1 μM): 108%
viability at 5 µM ([1]; 2D single layer culture, 5 μM): 102%
viability at 10 µM ([1]; 2D single layer culture, 10 μM): 99%
viability at 20 µM ([1]; 2D single layer culture, 20 μM): 66%
viability at 0.5 µM [1, 4]: 120%
viability at 1 µM [1, 5]: 120%
viability at 5 µM [1, 6]: 128%
viability at 10 µM [1, 7]: 138%
viability at 20 µM [1, 8]: 129%
cell proliferation promoting effect (in words) [1, 9]: a favorable cell proliferation promoting effect was not observed
cell proliferation promoting effect (in words) [1, 10]: exhibited cell proliferation promoting effect at a wide concentration range
proliferation activity (in words) [2]: promoted proliferation activity in a plurality of cancer cell lines
CD34+ (negative rate) (CD34, CD73, CD29 of hMSC): 0.7%
CD29+ (positive rate) (CD34, CD73, CD29 of hMSC): 87.6%
CD73+ (positive rate) (CD34, CD73, CD29 of hMSC): 99.1%
undifferentiated state of hMSCs (in words) (CD34, CD73, CD29 of hMSC): promote cell proliferation while maintaining undifferentiated state of hMSCs

CCC(=NNC(=O)C(CC)Nc1ccccc1)c1ccc(O)c(C)c1O (stereo not shown) [k-1:H-7]
relative value of RLU (number of viable cells) [1, 3]: 110%
relative value of RLU (number of viable cells) ([1]; 2D single layer culture, 1 μM): 105%
relative value of RLU (number of viable cells) ([1]; 2D single layer culture, 5 μM): 91%
relative value of RLU (number of viable cells) ([1]; 2D single layer culture, 10 μM): 69%
relative value of RLU (number of viable cells) ([1]; 2D single layer culture, 20 μM): 47%
relative value of RLU (number of viable cells) [1, 4]: 104%
relative value of RLU (number of viable cells) [1, 5]: 137%
relative value of RLU (number of viable cells) [1, 6]: 176%
relative value of RLU (number of viable cells) [1, 7]: 150%
relative value of RLU (number of viable cells) [1, 8]: 110%
cell proliferation promoting effect (in words) [1, 9]: a favorable cell proliferation promoting effect was not observed
cell proliferation promoting effect (in words) [1, 10]: exhibited cell proliferation promoting effect at a wide concentration range
proliferation activity (in words) [2]: promoted proliferation activity in a plurality of cancer cell lines
CD34+ (negative rate) (CD34, CD73, CD29 of hMSC): 3%
CD29+ (positive rate) (CD34, CD73, CD29 of hMSC): 94.6%
CD73+ (positive rate) (CD34, CD73, CD29 of hMSC): 100%
undifferentiated state of hMSCs (in words) (CD34, CD73, CD29 of hMSC): promote cell proliferation while maintaining undifferentiated state of hMSCs
